Test results published in patent publication US7449582B2, “Compounds and compositions as protein kinase inhibitors” (IRM LLC, priority 2003, dated 2008).
pIC50: −log10 of the molar value.

Legend:
wild type Bcr-abl = molecular target: T1, wild type Bcr-abl (Homo sapiens, UniProt P00519); assay: Proliferation of Ba/F3 cells expressing wild type Bcr-abl; format: cell-based
T1 construct: BCR (N-terminal fusion partner); expressed in transfected cells; host or cells: Ba/F3 (murine pro-B cells); the other entry of the earlier key: BCR (P11274, Breakpoint cluster region protein)
Description: (§1) 32D-p210 cells are plated into 96 well TC plates at a density of 15,000 cells per well. 50 μL of two fold serial dilutions of the test compound (Cmax is 40 μM) are added to each well (STI571 is included as a positive control). After incubating the cells for 48 hours at 37° C., 5% CO2, 15 μL of MTT (Promega) is added to each well and the cells are incubated for an additional 5 hours. The optical density at 570 nm is quantified spectrophotometrically and IC50 values, the concentration of compound required for 50% inhibition, determined from a dose response curve.
(§2) Compounds of the invention are tested for their antiproliferative effect on Ba/F3 cells expressing either wild type or the mutant forms of BCR-Abl (G250E, E255V, T315I, F317L, M351T) that confers resistance or diminished sensitivity to ST1571. The antiproliferative effect of these compounds on the mutant-BCR-Abl expressing cells and on the non transformed cells were tested at 10, 3.3, 1.1 and 0.37 μM as described above (in media lacking IL3). The IC50 values of the compounds lacking toxicity on the untransformed cells were determined from the dose response curves obtained as describe above.

wild-type Abl = assay: Upstate KinaseProfiler radio-enzymatic filter binding assay, Abl; format: biochemical; conditions: at a concentration of 10 μM
Description: (§3) Compounds of the invention are assessed for their ability to inhibit individual members of a panel of kinases (a partial, non-limiting list of kinases includes: Abl, BCR-Abl, CSK, JNK1, JNK2, PDGF-R, p38, p70S6K, TGFβ, SRC, EGFR, c-Kit, trkB, FGFR3, Fes, Lck, Syk, RAF, MKK4, MKK6 and SAPK2μ). The compounds are tested in duplicates at a final concentration of 10 μM following this generic protocol. Note that the kinase buffer composition and the substrates vary for the different kinases included in the “Upstate KinaseProfiler™” panel. Kinase buffer (2.5 μL, 10×—containing MnCl2 when required), active kinase (0.001-0.01 Units; 2.5 μL), specific or Poly(Glu4-Tyr) peptide (5-500 μM or 0.01 mg/ml) in kinase buffer and […] are mixed in an eppendorf on ice. […] The assay squares are transferred to a scintillation vial, 5 ml scintillation cocktail are added and ^32P incorporation (cpm) to the peptide substrate is quantified with a Beckman scintillation counter. Percentage inhibition is calculated for each reaction.

MKK4 = molecular target: T2, MKK4 (Mus musculus, UniProt P47809); assay: Upstate KinaseProfiler radio-enzymatic filter binding assay, MKK4; format: biochemical; conditions: at a concentration of 10 μM; read-out: percentage inhibition
T2 construct: purchased Upstate
Description: as §3

Ba/F3-TEL-FGFR3 cells = assay: FGFR3 (Cellular Assay); format: cell-based
Description: Compounds of the invention are tested for their ability to inhibit transformed Ba/F3-TEL-FGFR3 cells proliferation, which is depended on FGFR3 cellular kinase activity. Ba/F3-TEL-FGFR3 are cultured up to 800,000 cells/mL in suspension, with RPMI 1640 supplemented with 10% fetal bovine serum as the culture medium. Cells are dispensed into 384-well format plate at 5000 cell/well in 50 μL culture medium. Compounds of the invention are dissolved and diluted in dimethylsufoxide (DMSO). Twelve points 1:3 serial dilutions are made into DMSO to create concentrations gradient ranging typically from 10 mM to 0.05 μM. Cells are added with 50 nL of diluted compounds and incubated for 48 hours in cell culture incubator. AlamarBlue® (TREK Diagnostic Systems), which can be used to monitor the reducing environment created by proliferating cells, are added to cells at final concentration of 10%. After additional four hours of incubation in a 37° C. cell culture incubator, fluorescence signals from reduced AlamarBlue® (Excitation at 530 nm, Emission at 580 nm) are quantified on Analyst GT (Molecular Devices Corp.). IC50 values are calculated by linear regression analysis of the percentage inhibition of each compound at 12 concentrations.

SAPK2α = molecular target: T3, SAPK2α (Homo sapiens, UniProt Q16539); assay: Upstate KinaseProfiler radio-enzymatic filter binding assay, SAPK2α; format: biochemical; conditions: at a concentration of 10 μM; read-out: percentage inhibition
T3 construct: purchased Upstate
Description: as §3

TrkB = molecular target: T4, TrkB (Homo sapiens, UniProt Q16620); assay: Upstate KinaseProfiler radio-enzymatic filter binding assay, TrkB; format: biochemical; conditions: at a concentration of 10 μM; read-out: percentage inhibition
T4 construct: purchased Upstate
Description: as §3

c-Raf [1] = molecular target: c-Raf (Homo sapiens, UniProt P04049); assay: c-Raf enzyme assay; format: biochemical
SAPK2β = molecular target: T5, SAPK2β (Homo sapiens, UniProt Q15759); assay: Upstate KinaseProfiler radio-enzymatic filter binding assay, SAPK2β; format: biochemical; conditions: at a concentration of 10 μM; read-out: percentage inhibition
T5 construct: purchased Upstate
Description: as §3

c-Raf [2] = molecular target: T6, c-Raf (Homo sapiens, UniProt P04049, Y340D/Y341D); assay: Upstate KinaseProfiler radio-enzymatic filter binding assay, c-RAF; format: biochemical; conditions: at a concentration of 10 μM; read-out: percentage inhibition
T6 construct: purchased Upstate
Description: as §3

p70S6K = molecular target: T7, p70S6K (Homo sapiens, UniProt P23443); assay: Upstate KinaseProfiler radio-enzymatic filter binding assay, p70S6K; format: biochemical; conditions: at a concentration of 10 μM; read-out: percentage inhibition
T7 construct: purchased Upstate
Description: as §3

G250E Bcr-abl = molecular target: T8, G250E Bcr-abl (Homo sapiens, UniProt P00519, G250E); assay: Proliferation of Ba/F3 cells expressing G250E mutant Bcr-abl; format: cell-based
T8 construct: BCR (N-terminal fusion partner); expressed in transfected cells; host or cells: Ba/F3 (murine pro-B cells); the other entry of the earlier key: BCR (P11274, Breakpoint cluster region protein)
Description: as §1, §2

E255V Bcr-abl = molecular target: T9, E255V Bcr-abl (Homo sapiens, UniProt P00519, E255V); assay: Proliferation of Ba/F3 cells expressing E255V mutant Bcr-abl; format: cell-based
T9 construct: BCR (N-terminal fusion partner); expressed in transfected cells; host or cells: Ba/F3 (murine pro-B cells); the other entry of the earlier key: BCR (P11274, Breakpoint cluster region protein)
Description: as §1, §2

T315I Bcr-abl = molecular target: T10, T315I Bcr-abl (Homo sapiens, UniProt P00519, T315I); assay: Proliferation of Ba/F3 cells expressing T315I mutant Bcr-abl; format: cell-based
T10 construct: BCR (N-terminal fusion partner); expressed in transfected cells; host or cells: Ba/F3 (murine pro-B cells); the other entry of the earlier key: BCR (P11274, Breakpoint cluster region protein)
Description: as §1, §2

JNK2 α2 = molecular target: T11, JNK2 α2 (Homo sapiens, UniProt P45984); assay: Upstate KinaseProfiler radio-enzymatic filter binding assay, JNK2α2; format: biochemical; conditions: at a concentration of 10 μM; read-out: percentage inhibition
T11 construct: purchased Upstate
Description: as §3

CSK = molecular target: T12, CSK (Homo sapiens, UniProt P41240); assay: Upstate KinaseProfiler radio-enzymatic filter binding assay, CSK; format: biochemical; conditions: at a concentration of 10 μM; read-out: percentage inhibition
T12 construct: purchased Upstate
Description: as §3

JNK1α1 = molecular target: T13, JNK1α1 (Homo sapiens, UniProt P45983); assay: Upstate KinaseProfiler radio-enzymatic filter binding assay, JNK1α1; format: biochemical; conditions: at a concentration of 10 μM; read-out: percentage inhibition
T13 construct: purchased Upstate
Description: as §3

FGFR3 [3] = molecular target: T14, FGFR3 (Homo sapiens, UniProt P22607); assay: Upstate KinaseProfiler radio-enzymatic filter binding assay, FGFR3; format: biochemical; conditions: at a concentration of 10 μM; read-out: percentage inhibition
T14 construct: purchased Upstate
Description: as §3

MKK6 = molecular target: T15, MKK6 (Homo sapiens, UniProt P52564); assay: Upstate KinaseProfiler radio-enzymatic filter binding assay, MKK6; format: biochemical; conditions: at a concentration of 10 μM; read-out: percentage inhibition
T15 construct: purchased Upstate
Description: as §3

F317L Bcr-abl = molecular target: T16, F317L Bcr-abl (Homo sapiens, UniProt P00519, F317L); assay: Proliferation of Ba/F3 cells expressing F317L mutant Bcr-abl; format: cell-based
T16 construct: BCR (N-terminal fusion partner); expressed in transfected cells; host or cells: Ba/F3 (murine pro-B cells); the other entry of the earlier key: BCR (P11274, Breakpoint cluster region protein)
Description: as §1, §2

FGFR3 [4] = molecular target: T14, FGFR3; assay: FGFR3 (Enzymatic Assay); format: biochemical; conditions: FGFR3 enzyme assay
Description: Kinase activity assay with purified FGFR3 (Upstate) is carried out in a final volume of 10 μL containing 0.25 μg/mL of enzyme in kinase buffer (30 mM Tris-HCl pH7.5, 15 mM MgCl2, 4.5 mM MnCl2, 15 μM Na3VO4 and 50 μg/mL BSA), and substrates (5 μg/mL biotin-poly-EY(Glu, Tyr) (CIS-US, Inc.) and 3 μM ATP). Two solutions are made: the first solution of 5 μl contains the FGFR3 enzyme in kinase buffer was first dispensed into 384-format ProxiPlate® (Perkin-Elmer) followed by adding 50 nL of compounds dissolved in DMSO, then 5 μl of second solution contains the substrate (poly-EY) and ATP in kinase buffer was added to each wells. The reactions are incubated at room temperature for one hour, stopped by adding 10 μL of HTRF detection mixture, which contains 30 mM Tris-HCl pH7.5, 0.5 M KF, 50 mM ETDA, 0.2 mg/mL BSA, 15 μg/mL streptavidin-XL665 (CIS-US, Inc.) and 150 ng/mL cryptate conjugated anti-phosphotyrosine antibody (CIS-US, Inc.). After one hour of room temperature incubation to allow for streptavidin-biotin interaction, time resolved florescent signals are read on Analyst GT (Molecular Devices Corp.). IC50 values are calculated by linear regression analysis of the percentage inhibition of each compound at 12 concentrations (1:3 dilution from 50 μM to 0.28 nM).

b-Raf = b-Raf (Homo sapiens, UniProt P15056); assay: b-Raf enzyme assay; format: biochemical
Description: Compounds of the invention are tested for their ability to inhibit the activity of b-Raf. The assay is carried out in 384-well MaxiSorp plates (NUNC) with black walls and clear bottom. The substrate, IκBα is diluted in DPBS (1:750) and 15 μl is added to each well. The plates are incubated at 4° C. overnight and washed 3 times with TBST (25 mM Tris, pH 8.0, 150 mM NaCl and 0.05% Tween-20) using the EMBLA plate washer. Plates are blocked by Superblock (15 μl/well) for 3 hours at room temperature, washed 3 times with TBST and pat-dried. Assay buffer containing 20 μM ATP (10 μl) is added to each well followed by 100 nl or 500 nl of compound. B-Raf is diluted in the assay buffer (1 μl into 25 μl) and 10 μl of diluted b-Raf is added to each well (0.4 μg/well). The plates are incubated at room temperature for 2.5 hours. The kinase reaction is stopped by washing the plates 6 times with TBST. Phosph-IκBα (Ser32/36) antibody is diluted in Superblock (1:10,000) and 15 μl is added to each well. The plates are incubated at 4° C. overnight and washed 6 times with TBST. AP-conjugated goat-anti-mouse IgG is diluted in Superblock (1:1,500) and 15 μl is added to each well. Plates are incubated at room temperature for 1 hour and washed 6 times with TBST. […] Plates are read on Acquest or Analyst GT using a Fluorescence Intensity Nanxin BBT anion (505 dichroic mirror).

M351T Bcr-abl = molecular target: T17, M351T Bcr-abl (Homo sapiens, UniProt P00519, M351T); assay: Proliferation of Ba/F3 cells expressing M351T mutant Bcr-abl; format: cell-based
T17 construct: BCR (N-terminal fusion partner); expressed in transfected cells; host or cells: Ba/F3 (murine pro-B cells); the other entry of the earlier key: BCR (P11274, Breakpoint cluster region protein)
Description: as §1, §2

Lck = molecular target: T18, Lck (Homo sapiens, UniProt P06239); assay: Upstate KinaseProfiler radio-enzymatic filter binding assay, Lck; format: biochemical; conditions: at a concentration of 10 μM; read-out: percentage inhibition
T18 construct: purchased Upstate
Description: as §3

Bmx = molecular target: T19, Bmx (Homo sapiens, UniProt P51813); assay: Upstate KinaseProfiler radio-enzymatic filter binding assay, Bmx; format: biochemical; conditions: at a concentration of 10 μM; read-out: percentage inhibition
T19 construct: purchased Upstate
Description: as §3

T14 sequence (P22607 23-806): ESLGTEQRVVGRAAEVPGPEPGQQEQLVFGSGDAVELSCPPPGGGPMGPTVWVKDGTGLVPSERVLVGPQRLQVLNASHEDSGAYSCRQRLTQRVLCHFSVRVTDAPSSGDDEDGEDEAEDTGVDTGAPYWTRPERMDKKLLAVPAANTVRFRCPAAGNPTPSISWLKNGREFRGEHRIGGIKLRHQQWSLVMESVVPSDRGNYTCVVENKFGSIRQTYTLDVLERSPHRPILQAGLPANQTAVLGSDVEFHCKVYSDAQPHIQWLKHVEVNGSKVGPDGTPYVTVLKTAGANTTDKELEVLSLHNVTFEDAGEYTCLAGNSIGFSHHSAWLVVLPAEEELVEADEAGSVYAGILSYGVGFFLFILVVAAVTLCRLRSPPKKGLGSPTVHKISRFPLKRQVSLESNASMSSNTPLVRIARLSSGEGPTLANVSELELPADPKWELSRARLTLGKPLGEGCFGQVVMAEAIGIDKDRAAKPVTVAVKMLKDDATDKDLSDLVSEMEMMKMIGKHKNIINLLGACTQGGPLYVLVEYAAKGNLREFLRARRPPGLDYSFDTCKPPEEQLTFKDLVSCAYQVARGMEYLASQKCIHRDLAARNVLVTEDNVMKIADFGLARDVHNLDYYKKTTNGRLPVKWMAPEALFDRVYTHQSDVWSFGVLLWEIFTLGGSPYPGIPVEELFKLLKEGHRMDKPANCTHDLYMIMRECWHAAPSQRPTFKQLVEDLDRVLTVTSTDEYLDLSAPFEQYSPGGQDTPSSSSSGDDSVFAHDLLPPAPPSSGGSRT
T11 sequence (P45984 whole entry): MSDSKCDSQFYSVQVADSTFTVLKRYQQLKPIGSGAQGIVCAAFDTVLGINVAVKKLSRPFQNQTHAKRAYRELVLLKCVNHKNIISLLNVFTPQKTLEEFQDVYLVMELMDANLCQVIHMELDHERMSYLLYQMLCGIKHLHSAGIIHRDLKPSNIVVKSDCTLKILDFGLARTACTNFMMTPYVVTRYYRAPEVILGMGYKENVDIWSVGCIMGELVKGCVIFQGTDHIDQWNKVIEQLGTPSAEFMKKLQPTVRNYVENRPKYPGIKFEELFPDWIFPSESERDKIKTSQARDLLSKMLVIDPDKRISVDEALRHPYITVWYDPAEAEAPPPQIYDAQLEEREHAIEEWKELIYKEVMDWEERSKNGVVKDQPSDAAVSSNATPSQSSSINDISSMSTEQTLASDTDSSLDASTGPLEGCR
T6 sequence (P04049 306-648 Y340D/Y341D limits assumed): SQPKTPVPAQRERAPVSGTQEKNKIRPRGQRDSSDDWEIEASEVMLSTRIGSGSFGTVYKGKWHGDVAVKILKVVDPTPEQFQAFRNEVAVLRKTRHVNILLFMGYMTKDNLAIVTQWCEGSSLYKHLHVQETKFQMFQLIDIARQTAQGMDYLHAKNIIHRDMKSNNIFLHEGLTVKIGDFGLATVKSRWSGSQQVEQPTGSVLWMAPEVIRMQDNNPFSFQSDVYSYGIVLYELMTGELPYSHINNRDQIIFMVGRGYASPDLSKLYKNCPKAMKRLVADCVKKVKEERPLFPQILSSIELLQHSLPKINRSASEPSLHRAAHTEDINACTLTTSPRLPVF
T18 sequence (P06239 whole entry): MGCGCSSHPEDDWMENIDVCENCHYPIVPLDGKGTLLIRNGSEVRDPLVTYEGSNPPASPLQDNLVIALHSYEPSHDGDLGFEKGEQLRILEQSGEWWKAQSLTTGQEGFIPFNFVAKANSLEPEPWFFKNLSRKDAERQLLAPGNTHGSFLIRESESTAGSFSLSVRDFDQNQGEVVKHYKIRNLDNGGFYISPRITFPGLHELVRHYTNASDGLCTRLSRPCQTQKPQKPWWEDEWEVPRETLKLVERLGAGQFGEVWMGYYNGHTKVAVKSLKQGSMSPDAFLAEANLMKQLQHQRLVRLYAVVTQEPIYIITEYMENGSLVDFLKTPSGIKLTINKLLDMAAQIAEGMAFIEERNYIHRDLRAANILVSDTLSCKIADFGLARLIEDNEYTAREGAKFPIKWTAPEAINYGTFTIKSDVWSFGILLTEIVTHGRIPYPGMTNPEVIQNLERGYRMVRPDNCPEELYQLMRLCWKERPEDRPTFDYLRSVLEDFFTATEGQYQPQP
T7 sequence (P23443 whole entry): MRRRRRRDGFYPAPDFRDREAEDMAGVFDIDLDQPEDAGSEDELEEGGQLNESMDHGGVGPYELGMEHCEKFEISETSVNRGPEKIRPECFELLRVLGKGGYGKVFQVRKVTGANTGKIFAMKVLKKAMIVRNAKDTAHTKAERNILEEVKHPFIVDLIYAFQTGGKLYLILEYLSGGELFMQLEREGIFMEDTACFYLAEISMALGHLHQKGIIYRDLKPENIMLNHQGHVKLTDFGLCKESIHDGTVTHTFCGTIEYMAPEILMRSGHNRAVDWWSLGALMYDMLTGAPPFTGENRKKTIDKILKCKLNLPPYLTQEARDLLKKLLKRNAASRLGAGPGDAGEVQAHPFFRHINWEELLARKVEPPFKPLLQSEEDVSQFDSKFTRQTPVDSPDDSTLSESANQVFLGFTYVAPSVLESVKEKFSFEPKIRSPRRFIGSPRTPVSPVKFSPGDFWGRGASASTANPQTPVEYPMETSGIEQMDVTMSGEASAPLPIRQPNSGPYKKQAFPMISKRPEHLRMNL
T3 sequence (Q16539 whole entry): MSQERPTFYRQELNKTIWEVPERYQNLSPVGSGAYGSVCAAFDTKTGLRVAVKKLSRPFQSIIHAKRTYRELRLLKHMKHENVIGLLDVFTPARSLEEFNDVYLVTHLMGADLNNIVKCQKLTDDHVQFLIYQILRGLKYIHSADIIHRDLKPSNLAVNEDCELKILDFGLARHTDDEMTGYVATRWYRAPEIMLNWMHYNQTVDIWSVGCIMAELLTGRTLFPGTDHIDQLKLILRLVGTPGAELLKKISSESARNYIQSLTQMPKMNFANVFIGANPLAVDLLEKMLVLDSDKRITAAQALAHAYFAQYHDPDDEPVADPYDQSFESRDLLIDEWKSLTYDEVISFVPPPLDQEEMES
Chain of c-Raf (Homo sapiens, UniProt P04049) (P04049 whole entry, species assumed): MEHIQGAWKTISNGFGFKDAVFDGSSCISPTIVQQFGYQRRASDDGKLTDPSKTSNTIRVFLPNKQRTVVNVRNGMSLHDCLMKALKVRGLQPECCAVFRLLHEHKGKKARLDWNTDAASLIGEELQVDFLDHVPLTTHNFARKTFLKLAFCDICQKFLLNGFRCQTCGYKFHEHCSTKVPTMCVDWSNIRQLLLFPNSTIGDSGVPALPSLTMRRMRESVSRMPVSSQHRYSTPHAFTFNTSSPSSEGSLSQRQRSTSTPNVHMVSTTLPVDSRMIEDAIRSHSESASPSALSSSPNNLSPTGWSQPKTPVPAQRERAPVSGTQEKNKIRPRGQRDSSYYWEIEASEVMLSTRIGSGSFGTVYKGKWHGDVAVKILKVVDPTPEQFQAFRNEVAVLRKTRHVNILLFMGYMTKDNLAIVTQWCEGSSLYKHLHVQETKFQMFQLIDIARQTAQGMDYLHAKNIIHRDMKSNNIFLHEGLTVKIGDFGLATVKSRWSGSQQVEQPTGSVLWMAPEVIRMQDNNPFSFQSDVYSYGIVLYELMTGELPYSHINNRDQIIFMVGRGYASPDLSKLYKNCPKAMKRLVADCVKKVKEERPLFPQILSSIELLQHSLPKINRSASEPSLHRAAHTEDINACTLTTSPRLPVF
T15 sequence (P52564 whole entry): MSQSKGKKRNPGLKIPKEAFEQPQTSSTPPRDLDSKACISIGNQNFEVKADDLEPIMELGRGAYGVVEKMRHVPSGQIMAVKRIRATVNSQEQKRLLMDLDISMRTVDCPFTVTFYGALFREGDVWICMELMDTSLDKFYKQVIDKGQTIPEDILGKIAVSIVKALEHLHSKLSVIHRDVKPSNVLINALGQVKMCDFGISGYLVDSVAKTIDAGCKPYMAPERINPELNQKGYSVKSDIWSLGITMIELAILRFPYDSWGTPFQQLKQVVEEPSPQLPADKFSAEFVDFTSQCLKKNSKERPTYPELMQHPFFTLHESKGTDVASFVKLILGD
T2 sequence (P47809 2-397 limits assumed): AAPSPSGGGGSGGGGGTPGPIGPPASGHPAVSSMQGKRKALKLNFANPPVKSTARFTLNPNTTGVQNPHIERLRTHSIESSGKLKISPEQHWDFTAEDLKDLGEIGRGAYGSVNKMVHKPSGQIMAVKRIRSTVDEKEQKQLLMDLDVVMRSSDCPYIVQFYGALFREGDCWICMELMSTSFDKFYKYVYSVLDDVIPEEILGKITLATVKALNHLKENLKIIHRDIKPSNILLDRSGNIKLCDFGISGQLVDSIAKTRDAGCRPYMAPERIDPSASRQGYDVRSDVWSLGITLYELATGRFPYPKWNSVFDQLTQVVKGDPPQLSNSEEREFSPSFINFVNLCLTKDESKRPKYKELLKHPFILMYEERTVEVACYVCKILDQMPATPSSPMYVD
T13 sequence (P45983 1-384 isoform P45983-2): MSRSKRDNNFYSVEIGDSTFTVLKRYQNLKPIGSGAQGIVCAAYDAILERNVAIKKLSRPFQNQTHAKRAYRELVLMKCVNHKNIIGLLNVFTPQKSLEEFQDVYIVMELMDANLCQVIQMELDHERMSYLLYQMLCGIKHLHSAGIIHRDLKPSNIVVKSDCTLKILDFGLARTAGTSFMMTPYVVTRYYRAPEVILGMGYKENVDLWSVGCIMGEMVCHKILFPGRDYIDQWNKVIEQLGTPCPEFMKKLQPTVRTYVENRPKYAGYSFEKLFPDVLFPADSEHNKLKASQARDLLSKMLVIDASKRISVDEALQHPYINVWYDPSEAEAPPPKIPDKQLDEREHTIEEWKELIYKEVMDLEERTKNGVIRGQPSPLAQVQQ

pIC50 (wild type Bcr-abl): > 9.30
percentage inhibition (wild-type Abl): 100%
inhibition at 10 µM (MKK4): 91%
pIC50 (Ba/F3-TEL-FGFR3 cells): 8.52
inhibition at 10 µM (SAPK2α): 95%
inhibition at 10 µM (TrkB): 97%
pIC50 (c-Raf [1]): 7.77
inhibition at 10 µM (SAPK2β): 98%
inhibition at 10 µM (c-Raf [2]): 90%
inhibition at 10 µM (p70S6K): 86%
pIC50 (G250E Bcr-abl): 7.37
pIC50 (E255V Bcr-abl): 7.32
pIC50 (T315I Bcr-abl): 6.91
inhibition at 10 µM (JNK2 α2): 99%
inhibition at 10 µM (CSK): 100%
inhibition at 10 µM (JNK1α1): 89%
inhibition at 10 µM (FGFR3 [3]): 96%
inhibition at 10 µM (MKK6): 97%
pIC50 (F317L Bcr-abl): > 9.30
pIC50 (FGFR3 [4]): 6.97
pIC50 (b-Raf): 6.30
pIC50 (M351T Bcr-abl): 8.05
inhibition at 10 µM (Lck): 99%
inhibition at 10 µM (Bmx): 100%
Compound: COc1ccc(Nc2cc3c(cn2)cc(-c2cc(NC(=O)c4cccc(C(F)(F)F)c4)ccc2C)c(=O)n3C)cn1 [Example 8, N-{3-[7-(6-Methoxy-pyridin-3-ylamino)-1-methyl-2-oxo-1,2-dihydro-[1,6]naphthyridin-3-yl]-4-methyl-phenyl}-3-trifluoromethyl-benzamide]
